{"source": "ChEMBL document CHEMBL4800722", "about": "“Data for DCP probe BI 605906” (2021)", "key": {"[1]": {"biological_target": "Cyclin-dependent kinase 14 (Homo sapiens) (UniProt O94921)", "assay": "CDK14 (PFTK1)/CYC Invitrogen Lab (UK) kinase screen (BI)", "conditions": "Compound concentration 1.0 uM"}, "[2]": {"biological_target": "Dual specificity tyrosine-phosphorylation-regulated kinase 1B (Homo sapiens) (UniProt Q9Y463)", "sequence (Q9Y463 whole entry, looked up)": "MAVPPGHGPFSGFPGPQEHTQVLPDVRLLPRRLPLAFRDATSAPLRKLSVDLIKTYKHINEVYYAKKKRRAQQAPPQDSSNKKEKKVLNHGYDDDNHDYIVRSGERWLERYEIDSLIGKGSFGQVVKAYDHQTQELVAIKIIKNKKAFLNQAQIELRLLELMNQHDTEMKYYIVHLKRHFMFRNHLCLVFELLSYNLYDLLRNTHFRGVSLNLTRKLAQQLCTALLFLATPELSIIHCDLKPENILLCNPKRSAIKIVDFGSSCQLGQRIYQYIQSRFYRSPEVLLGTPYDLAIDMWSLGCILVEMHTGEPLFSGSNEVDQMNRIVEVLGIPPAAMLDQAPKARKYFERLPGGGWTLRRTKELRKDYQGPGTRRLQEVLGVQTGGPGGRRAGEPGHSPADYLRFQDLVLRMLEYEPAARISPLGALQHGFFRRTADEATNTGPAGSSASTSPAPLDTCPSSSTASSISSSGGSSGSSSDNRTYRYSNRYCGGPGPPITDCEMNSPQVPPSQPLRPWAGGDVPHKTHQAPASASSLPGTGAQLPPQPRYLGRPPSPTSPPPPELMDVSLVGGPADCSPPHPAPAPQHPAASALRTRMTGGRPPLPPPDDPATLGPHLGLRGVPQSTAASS"}, "[3]": {"biological_target": "Myotonin-protein kinase (Homo sapiens) (UniProt Q09013)", "sequence (Q09013 whole entry)": "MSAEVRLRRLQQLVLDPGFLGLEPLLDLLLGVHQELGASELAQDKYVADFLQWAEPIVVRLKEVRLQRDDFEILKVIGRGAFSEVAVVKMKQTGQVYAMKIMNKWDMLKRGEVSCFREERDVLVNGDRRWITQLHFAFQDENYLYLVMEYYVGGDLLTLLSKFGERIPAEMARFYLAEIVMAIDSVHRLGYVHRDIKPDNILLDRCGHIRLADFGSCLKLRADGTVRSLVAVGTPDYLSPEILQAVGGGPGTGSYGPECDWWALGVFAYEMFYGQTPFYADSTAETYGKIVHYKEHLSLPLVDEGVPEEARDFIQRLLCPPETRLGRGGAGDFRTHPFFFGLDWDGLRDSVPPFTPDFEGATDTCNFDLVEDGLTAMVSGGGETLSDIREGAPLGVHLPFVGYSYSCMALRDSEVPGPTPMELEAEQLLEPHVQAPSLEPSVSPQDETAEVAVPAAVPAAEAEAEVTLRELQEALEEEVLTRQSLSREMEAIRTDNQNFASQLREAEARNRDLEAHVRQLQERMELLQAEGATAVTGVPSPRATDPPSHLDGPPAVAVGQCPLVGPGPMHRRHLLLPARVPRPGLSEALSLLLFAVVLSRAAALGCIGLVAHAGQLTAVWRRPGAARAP", "conditions": "Compound concentration 1.0 uM"}, "[4]": {"biological_target": "Polyunsaturated fatty acid 5-lipoxygenase (Homo sapiens) (UniProt P09917)", "assay": "5LO Eurofins SafetyScreen44 (BI)", "conditions": "Compound concentration 10.0 uM"}, "[5]": {"biological_target": "Nitric oxide synthase 3 (Rattus norvegicus) (UniProt Q62600)", "assay": "CNOS Eurofins SafetyScreen44 (BI)", "conditions": "Compound concentration 10.0 uM"}, "[6]": {"biological_target": "Serine/threonine-protein kinase pim-1 (Homo sapiens) (UniProt P11309)", "sequence (P11309 whole entry, looked up)": "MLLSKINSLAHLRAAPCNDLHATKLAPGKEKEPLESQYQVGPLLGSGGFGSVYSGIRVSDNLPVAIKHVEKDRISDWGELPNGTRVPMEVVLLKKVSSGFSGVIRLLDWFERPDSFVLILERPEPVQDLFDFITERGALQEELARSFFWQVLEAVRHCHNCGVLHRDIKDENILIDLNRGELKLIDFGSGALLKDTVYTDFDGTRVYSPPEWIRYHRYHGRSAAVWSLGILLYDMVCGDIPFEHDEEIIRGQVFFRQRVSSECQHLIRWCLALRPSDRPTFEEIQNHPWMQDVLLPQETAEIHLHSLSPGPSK"}, "[7]": {"biological_target": "Mitogen-activated protein kinase kinase kinase 7 (Homo sapiens) (UniProt O43318)", "conditions": "Compound concentration 1.0 uM"}, "[8]": {"biological_target": "Mitogen-activated protein kinase kinase kinase 8 (Homo sapiens) (UniProt P41279)", "conditions": "Compound concentration 1.0 uM"}, "[9]": {"biological_target": "Protein kinase C theta type (Homo sapiens) (UniProt Q04759)", "conditions": "Compound concentration 1.0 uM"}, "[10]": {"biological_target": "RAF proto-oncogene serine/threonine-protein kinase (Homo sapiens) (UniProt P04049)", "assay": "RAF1 Invitrogen Lab (UK) kinase screen (BI)", "conditions": "Compound concentration 1.0 uM"}, "[11]": {"biological_target": "Interstitial collagenase (Homo sapiens) (UniProt P03956)", "conditions": "Compound concentration 10.0 uM"}, "[12]": {"biological_target": "Insulin receptor-related protein (Homo sapiens) (UniProt P14616)", "conditions": "Compound concentration 1.0 uM"}, "[13]": {"biological_target": "Casein kinase I isoform alpha (Homo sapiens) (UniProt P48729)", "conditions": "Compound concentration 1.0 uM"}, "[14]": {"biological_target": "Serine/threonine-protein kinase SBK1 (Homo sapiens) (UniProt Q52WX2)", "conditions": "Compound concentration 1.0 uM"}, "[15]": {"biological_target": "Histamine H3 receptor (Homo sapiens) (UniProt Q9Y5N1)", "conditions": "Compound concentration 10.0 uM"}, "[16]": {"biological_target": "Serine/threonine-protein kinase N1 (Homo sapiens) (UniProt Q16512)", "conditions": "Compound concentration 1.0 uM"}, "[17]": {"biological_target": "Sphingosine kinase 1 (Homo sapiens) (UniProt Q9NYA1)", "assay": "SPHK1 Invitrogen Lab (UK) kinase screen (BI)", "conditions": "Compound concentration 1.0 uM"}, "[18]": {"biological_target": "Serine/threonine-protein kinase Nek8 (Homo sapiens) (UniProt Q86SG6)", "conditions": "Compound concentration 1.0 uM"}, "[19]": {"biological_target": "Rhodopsin kinase GRK7 (Homo sapiens) (UniProt Q8WTQ7)", "conditions": "Compound concentration 1.0 uM"}, "[20]": {"biological_target": "Protein kinase C iota type (Homo sapiens) (UniProt P41743)", "conditions": "Compound concentration 1.0 uM"}, "[21]": {"biological_target": "Serine/threonine-protein kinase PLK4 (Homo sapiens) (UniProt O00444)", "conditions": "Compound concentration 1.0 uM"}, "[22]": {"biological_target": "MAP kinase-activated protein kinase 3 (Homo sapiens) (UniProt Q16644)", "conditions": "Compound concentration 1.0 uM"}, "[23]": {"biological_target": "Beta-adrenergic receptor kinase 1 (Homo sapiens) (UniProt P25098)", "sequence (P25098 whole entry)": "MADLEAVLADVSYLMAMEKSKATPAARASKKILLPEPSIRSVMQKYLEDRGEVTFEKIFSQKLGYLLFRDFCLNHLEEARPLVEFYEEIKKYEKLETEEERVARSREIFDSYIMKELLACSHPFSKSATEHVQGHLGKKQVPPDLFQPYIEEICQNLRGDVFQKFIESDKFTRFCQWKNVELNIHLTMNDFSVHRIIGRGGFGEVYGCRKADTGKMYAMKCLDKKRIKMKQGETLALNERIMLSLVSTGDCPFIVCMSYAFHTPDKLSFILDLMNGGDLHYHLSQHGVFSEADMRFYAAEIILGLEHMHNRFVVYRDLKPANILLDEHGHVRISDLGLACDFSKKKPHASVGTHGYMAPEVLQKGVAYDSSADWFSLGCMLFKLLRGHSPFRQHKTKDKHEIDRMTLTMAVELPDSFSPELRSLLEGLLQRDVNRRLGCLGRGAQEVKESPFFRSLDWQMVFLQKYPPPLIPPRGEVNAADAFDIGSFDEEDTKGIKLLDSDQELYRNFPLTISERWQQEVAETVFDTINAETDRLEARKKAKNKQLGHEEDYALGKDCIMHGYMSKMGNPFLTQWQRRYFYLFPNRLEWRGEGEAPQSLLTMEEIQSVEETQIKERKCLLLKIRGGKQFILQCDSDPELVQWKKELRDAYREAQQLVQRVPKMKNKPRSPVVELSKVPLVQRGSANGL", "conditions": "Compound concentration 1.0 uM"}, "[24]": {"biological_target": "Cyclin-dependent kinase 13/Cyclin-K (Homo sapiens) (UniProt Q14004+O75909)", "assay": "CDK13/CYCLIN K Invitrogen Lab (UK) kinase screen (BI)", "assay_type": "protein-complex assay", "conditions": "Compound concentration 1.0 uM"}, "[25]": {"biological_target": "Ephrin type-A receptor 5 (Homo sapiens) (UniProt P54756)", "sequence (P54756 whole entry)": "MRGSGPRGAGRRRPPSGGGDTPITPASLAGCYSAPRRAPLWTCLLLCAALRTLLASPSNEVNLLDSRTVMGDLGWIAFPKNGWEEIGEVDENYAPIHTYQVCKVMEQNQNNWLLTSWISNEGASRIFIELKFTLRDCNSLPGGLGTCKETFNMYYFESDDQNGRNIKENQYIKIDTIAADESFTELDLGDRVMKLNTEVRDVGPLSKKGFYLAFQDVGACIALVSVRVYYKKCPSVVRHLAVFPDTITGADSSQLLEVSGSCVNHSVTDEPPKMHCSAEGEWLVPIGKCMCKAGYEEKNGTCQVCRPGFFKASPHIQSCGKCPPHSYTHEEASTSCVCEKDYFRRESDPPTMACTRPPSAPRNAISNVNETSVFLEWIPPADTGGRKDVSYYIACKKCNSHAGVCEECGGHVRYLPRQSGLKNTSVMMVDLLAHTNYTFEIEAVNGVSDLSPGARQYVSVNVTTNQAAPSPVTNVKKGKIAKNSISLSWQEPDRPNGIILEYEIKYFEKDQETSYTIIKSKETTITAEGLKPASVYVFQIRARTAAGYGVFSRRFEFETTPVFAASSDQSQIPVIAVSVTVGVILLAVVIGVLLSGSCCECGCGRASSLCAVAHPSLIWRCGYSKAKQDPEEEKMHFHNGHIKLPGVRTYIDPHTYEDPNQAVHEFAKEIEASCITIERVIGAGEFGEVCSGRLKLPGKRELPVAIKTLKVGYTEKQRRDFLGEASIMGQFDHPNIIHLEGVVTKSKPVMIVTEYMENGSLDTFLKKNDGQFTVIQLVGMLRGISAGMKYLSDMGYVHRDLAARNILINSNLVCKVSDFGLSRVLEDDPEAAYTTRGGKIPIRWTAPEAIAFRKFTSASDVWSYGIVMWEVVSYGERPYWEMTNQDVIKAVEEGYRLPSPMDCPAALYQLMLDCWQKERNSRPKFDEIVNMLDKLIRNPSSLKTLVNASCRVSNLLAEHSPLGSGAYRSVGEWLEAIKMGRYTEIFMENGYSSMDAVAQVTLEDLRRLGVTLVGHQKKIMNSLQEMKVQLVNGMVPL", "conditions": "Compound concentration 1.0 uM"}, "[26]": {"biological_target": "Ephrin type-A receptor 6 (Homo sapiens) (UniProt Q9UF33)", "conditions": "Compound concentration 1.0 uM"}, "[27]": {"biological_target": "Rho-associated protein kinase 2 (Homo sapiens) (UniProt O75116)", "conditions": "Compound concentration 1.0 uM"}, "[28]": {"biological_target": "Cyclin-dependent kinase 2/cyclin E1 (Homo sapiens) (UniProt P24864+P24941)", "conditions": "Compound concentration 1.0 uM"}, "[29]": {"biological_target": "Serine/threonine-protein kinase MARK1 (Homo sapiens) (UniProt Q9P0L2)", "conditions": "Compound concentration 1.0 uM"}, "[30]": {"biological_target": "Alpha-2B adrenergic receptor (Homo sapiens) (UniProt P18089)", "conditions": "Compound concentration 10.0 uM"}, "[31]": {"biological_target": "Glycogen synthase kinase-3 alpha (Homo sapiens) (UniProt P49840)", "conditions": "Compound concentration 1.0 uM"}, "[32]": {"biological_target": "D(2) dopamine receptor (Homo sapiens) (UniProt P14416)", "sequence (P14416 whole entry)": "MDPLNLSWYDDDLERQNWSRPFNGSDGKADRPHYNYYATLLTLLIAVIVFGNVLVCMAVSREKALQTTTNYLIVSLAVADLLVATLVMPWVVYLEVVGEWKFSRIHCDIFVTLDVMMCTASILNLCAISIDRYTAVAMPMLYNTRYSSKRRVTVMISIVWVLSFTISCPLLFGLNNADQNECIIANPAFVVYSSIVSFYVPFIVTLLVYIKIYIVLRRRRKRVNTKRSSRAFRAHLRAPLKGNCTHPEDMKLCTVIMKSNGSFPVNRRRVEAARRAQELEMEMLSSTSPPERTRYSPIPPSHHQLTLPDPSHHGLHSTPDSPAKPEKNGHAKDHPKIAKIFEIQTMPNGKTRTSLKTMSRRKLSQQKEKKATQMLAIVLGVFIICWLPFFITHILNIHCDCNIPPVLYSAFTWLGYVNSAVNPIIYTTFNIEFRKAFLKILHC", "conditions": "Compound concentration 10.0 uM"}, "[33]": {"biological_target": "Phosphatidylinositol 4-kinase type 2-beta (Homo sapiens) (UniProt Q8TCG2)", "assay": "PI4K2B Invitrogen Lab (UK) kinase screen (BI)", "conditions": "Compound concentration 1.0 uM"}, "[34]": {"biological_target": "Tyrosine-protein kinase Blk (Homo sapiens) (UniProt P51451)", "assay": "BLK Invitrogen Lab (UK) kinase screen (BI)", "conditions": "Compound concentration 1.0 uM"}, "[35]": {"biological_target": "Sigma non-opioid intracellular receptor 1 (Homo sapiens) (UniProt Q99720)", "conditions": "Compound concentration 10.0 uM"}, "[36]": {"biological_target": "5-hydroxytryptamine receptor 1A (Homo sapiens) (UniProt P08908)", "conditions": "Compound concentration 10.0 uM"}, "[37]": {"biological_target": "Tyrosine-protein kinase SYK (Homo sapiens) (UniProt P43405)"}, "[38]": {"biological_target": "Tyrosine-protein kinase JAK2 (Homo sapiens) (UniProt O60674)", "conditions": "Compound concentration 1.0 uM"}, "[39]": {"biological_target": "Mitogen-activated protein kinase kinase kinase kinase 2 (Homo sapiens) (UniProt Q12851)", "conditions": "Compound concentration 1.0 uM"}, "[40]": {"biological_target": "Ribosomal protein S6 kinase alpha-1 (Homo sapiens) (UniProt Q15418)", "sequence (Q15418 whole entry)": "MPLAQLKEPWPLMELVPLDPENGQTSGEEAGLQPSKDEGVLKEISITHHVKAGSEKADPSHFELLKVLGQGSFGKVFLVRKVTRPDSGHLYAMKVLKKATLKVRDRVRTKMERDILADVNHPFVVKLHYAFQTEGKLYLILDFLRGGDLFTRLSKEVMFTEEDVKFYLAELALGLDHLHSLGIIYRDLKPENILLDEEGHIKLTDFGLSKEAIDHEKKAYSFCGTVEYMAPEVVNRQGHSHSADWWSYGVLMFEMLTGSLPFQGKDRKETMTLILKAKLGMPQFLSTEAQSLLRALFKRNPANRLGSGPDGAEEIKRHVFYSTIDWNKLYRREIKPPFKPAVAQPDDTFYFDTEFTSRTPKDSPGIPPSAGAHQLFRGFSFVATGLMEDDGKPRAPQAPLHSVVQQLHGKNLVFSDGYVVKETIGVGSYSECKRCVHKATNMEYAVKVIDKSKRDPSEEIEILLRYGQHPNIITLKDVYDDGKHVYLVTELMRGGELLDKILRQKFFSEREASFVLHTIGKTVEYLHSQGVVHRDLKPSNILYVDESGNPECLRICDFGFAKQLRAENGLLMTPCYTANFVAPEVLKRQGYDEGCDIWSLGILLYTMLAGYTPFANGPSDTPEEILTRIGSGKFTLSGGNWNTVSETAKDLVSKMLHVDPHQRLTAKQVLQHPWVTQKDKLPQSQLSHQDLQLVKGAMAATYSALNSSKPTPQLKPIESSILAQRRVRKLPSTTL", "assay": "MAPKAPK1A DUNDEE kinase screen (BI)", "conditions": "Rattus norvegicus; Compound concentration 10.0 uM"}, "[41]": {"biological_target": "Protein kinase C beta type (Homo sapiens) (UniProt P05771)", "conditions": "Compound concentration 1.0 uM"}, "[42]": {"biological_target": "Dual specificity mitogen-activated protein kinase kinase 1 (Homo sapiens) (UniProt Q02750)", "sequence (Q02750 whole entry)": "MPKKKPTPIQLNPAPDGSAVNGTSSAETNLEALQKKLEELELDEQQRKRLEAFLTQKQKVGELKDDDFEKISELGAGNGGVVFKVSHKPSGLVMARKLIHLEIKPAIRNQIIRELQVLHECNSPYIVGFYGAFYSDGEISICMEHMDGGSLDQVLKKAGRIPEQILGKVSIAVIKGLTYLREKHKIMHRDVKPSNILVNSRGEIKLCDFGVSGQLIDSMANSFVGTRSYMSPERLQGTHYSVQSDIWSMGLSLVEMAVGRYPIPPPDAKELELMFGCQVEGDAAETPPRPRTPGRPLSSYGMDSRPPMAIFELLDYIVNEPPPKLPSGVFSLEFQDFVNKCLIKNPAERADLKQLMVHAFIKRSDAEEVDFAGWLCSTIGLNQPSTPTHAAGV", "assay": "MAP2K1 Invitrogen Lab (UK) kinase screen (BI)"}, "[43]": {"biological_target": "SRSF protein kinase 1 (Homo sapiens) (UniProt Q96SB4)", "assay": "SRPK1 DUNDEE kinase screen (BI)", "conditions": "Compound concentration 10.0 uM"}}, "data": [{"molecule": "CCC(F)(F)c1cc(N2CCC(S(C)(=O)=O)CC2)nc2sc(C(N)=O)c(N)c12", "note": "[BI-605906]", "values": [{"measurement": "residual activity", "setting": "[1]", "result": 70, "unit": "%"}, {"measurement": "residual activity", "setting": "[2]; Compound concentration 1.0 uM", "result": 95, "unit": "%"}, {"measurement": "residual activity", "setting": "[2]; Compound concentration 10.0 uM", "result": 91, "unit": "%"}, {"measurement": "residual activity", "setting": "[3]", "result": 95, "unit": "%"}, {"measurement": "residual activity", "setting": "[4]", "result": 53, "unit": "%"}, {"measurement": "residual activity", "setting": "[5]", "result": 102, "unit": "%"}, {"measurement": "residual activity", "setting": "[6]; Compound concentration 1.0 uM", "result": 90, "unit": "%"}, {"measurement": "residual activity", "setting": "[6]; Compound concentration 10.0 uM", "result": 99, "unit": "%"}, {"measurement": "residual activity", "setting": "[7]", "result": 101, "unit": "%"}, {"measurement": "residual activity", "setting": "[8]", "result": 90, "unit": "%"}, {"measurement": "residual activity", "setting": "[9]", "result": 101, "unit": "%"}, {"measurement": "residual activity", "setting": "[10]", "result": 78, "unit": "%"}, {"measurement": "residual activity", "setting": "[11]", "result": 94, "unit": "%"}, {"measurement": "residual activity", "setting": "[12]", "result": 92, "unit": "%"}, {"measurement": "residual activity", "setting": "[13]", "result": 98, "unit": "%"}, {"measurement": "residual activity", "setting": "[14]", "result": 98, "unit": "%"}, {"measurement": "inhibition", "setting": "[15]", "result": 0.2, "unit": "%"}, {"measurement": "residual activity", "setting": "[16]", "result": 87, "unit": "%"}, {"measurement": "residual activity", "setting": "[17]", "result": 81, "unit": "%"}, {"measurement": "residual activity", "setting": "[18]", "result": 95, "unit": "%"}, {"measurement": "residual activity", "setting": "[19]", "result": 101, "unit": "%"}, {"measurement": "residual activity", "setting": "[20]", "result": 105, "unit": "%"}, {"measurement": "residual activity", "setting": "[21]", "result": 89, "unit": "%"}, {"measurement": "residual activity", "setting": "[22]", "result": 93, "unit": "%"}, {"measurement": "residual activity", "setting": "[23]", "result": 95, "unit": "%"}, {"measurement": "residual activity", "setting": "[24]", "result": 85, "unit": "%"}, {"measurement": "residual activity", "setting": "[25]", "result": 94, "unit": "%"}, {"measurement": "residual activity", "setting": "[26]", "result": 91, "unit": "%"}, {"measurement": "residual activity", "setting": "[27]", "result": 96, "unit": "%"}, {"measurement": "residual activity", "setting": "[28]", "result": 94, "unit": "%"}, {"measurement": "residual activity", "setting": "[29]", "result": 91, "unit": "%"}, {"measurement": "inhibition", "setting": "[30]", "result": 9.66, "unit": "%"}, {"measurement": "residual activity", "setting": "[31]", "result": 99, "unit": "%"}, {"measurement": "inhibition", "setting": "[32]", "result": 69.8, "unit": "%"}, {"measurement": "residual activity", "setting": "[33]", "result": 102, "unit": "%"}, {"measurement": "residual activity", "setting": "[34]", "result": 88, "unit": "%"}, {"measurement": "inhibition", "setting": "[35]", "result": 8.89, "unit": "%"}, {"measurement": "inhibition", "setting": "[36]", "result": 14.4, "unit": "%"}, {"measurement": "residual activity", "setting": "[37]; Compound concentration 1.0 uM", "result": 94, "unit": "%"}, {"measurement": "residual activity", "setting": "[37]; Compound concentration 10.0 uM", "result": 97, "unit": "%"}, {"measurement": "residual activity", "setting": "[38]", "result": 94, "unit": "%"}, {"measurement": "residual activity", "setting": "[39]", "result": 99, "unit": "%"}, {"measurement": "residual activity", "setting": "[40]", "result": 77.5, "unit": "%"}, {"measurement": "residual activity", "setting": "[41]", "result": 99, "unit": "%"}, {"measurement": "residual activity", "setting": "[42]; Compound concentration 1.0 uM", "result": 76, "unit": "%"}, {"measurement": "residual activity", "setting": "[42]; Compound concentration 10.0 uM", "result": 80, "unit": "%"}, {"measurement": "residual activity", "setting": "[43]", "result": 73.3, "unit": "%"}]}]}
